Laboratory results reported in patent US9974768B2, “Pharmaceutical for improving dysphagia” (MEIJI SEIKA PHARMA CO., LTD., priority 2013, dated 2018).
“Also recorded” adds a separate entry of the source.

What was measured:
[1] = test system: guinea pig dysphagia model induced by repeated administrations of haloperidol; assay: Swallowing reflex improvement in guinea pig dysphagia model induced by repeated administrations of haloperidol (water drinking frequency); type: in vivo
[2] = test system: normal guinea pig; assay: Swallowing reflex in normal guinea pig after local pharyngeal administration of substance P receptor antagonist FK888; type: in vivo
Description: FIG. 4 is a graph showing the results of a study of decrease in a swallowing reflex in a normal guinea pig by local administration to a pharyngeal site of a substance P receptor antagonist, and an improving effect by a prior local administration to the pharyngeal site of a captopril aqueous solution in Example 3.
FK888 (10 μM, 50 μL/guinea pig), which is a substance P receptor antagonist, was administered locally with a spray device to a pharyngeal site of a guinea pig, and water drinking reflection frequency was measured in the same way as in Experiment 1.

[3] = test system: blood pressure increase induced by angiotensin I; assay: Blood pressure increase induced by intravenous angiotensin I in normal rat; settings: angiotensin I 300 ng/kg i.v. after 1 hour
Description: The respective dose of a captopril, or lisinopril aqueous solution was administered orally and the blood pressures were measured after 1 hour. Thereafter, angiotensin I was administered intravenously (300 ng/kg) to induce blood pressure increase and a change in the mean blood pressure was measured.

[4] = test system: Hartley guinea pigs; assay: Swallowing reflex decrease by repeated administrations of haloperidol (water drinking frequency); type: in vivo, guinea pig; settings: haloperidol 1 mg/kg s.c. twice per day for 7 days, compared to physiological saline group
Description: To 6 week-old female Hartley guinea pigs (330 to 390 g) habituated for 1 week after receipt, a physiological saline solution, or a haloperidol solution was injected subcutaneously in a dosage of 1 mg/kg approx. every 12 hours twice per day for 7 days. Thereafter, a guinea pig was fixed at extremities, and 500 μL of distilled water was injected over 5 sec through a device to a part just before the pharynx, and the total frequency of swallowing until 10 sec and 30 sec from the injection was measured based on a muscle movement in a pharyngeal site. Thereafter a physiological saline solution, or a haloperidol solution was injected again (1 mg/kg).
The measurements were repeated totally 4 times at intervals of 1 min. […] Based on the result, the guinea pig was used as a dysphagia model induced by repeated administrations of haloperidol in the following experiments for evaluation of drug efficacy.

Question: `C[C@H](CS)C(=O)N1CCC[C@H]1C(=O)O` [captopril] was tested. Which water drinking frequency ([1]; 100 μL of 50 μM aqueous solution, single spray to pharyngeal mucosa, 30 min after administration) did it give?
Answer: significant increase; also recorded: exhibited an improving effect on dysphagia

Question: And the water drinking frequency ([1]; 100 μL of 50 mM aqueous solution, single spray to pharyngeal mucosa, 30 min after administration)?
Answer: significant increase; also recorded: exhibited an improving effect on dysphagia

Question: And the “water drinking frequency (dysphagia improving effect)” value ([1]; oral (intragastric) administration, same dose as 100 μL of 50 μM solution, 30 min after administration)?
Answer: did not exert an influence

Question: What about the “water drinking frequency (dysphagia improving effect)” value ([1]; oral (intragastric) administration, same dose as 100 μL of 50 mM solution, 30 min after administration) of the same compound?
Answer: did not exert an influence

Question: And the “decrease in swallowing reflex by FK888 administration” value ([2]; captopril aqueous solution sprayed to pharyngeal site in a single dose 30 min before FK888)?
Answer: suppressed

Question: What does the source list for `CN(Cc1ccccc1)C(=O)[C@H](Cc1ccc2ccccc2c1)NC(=O)[C@@H]1C[C@@H](O)CN1C(=O)c1cn(C)c2ccccc12` [FK888]?
Answer: increase in water drinking frequency by lisinopril (50 nM, 100 μL) ([1]; FK888 10 nM, 100 μL sprayed to pharyngeal mucosa 15 min after lisinopril administration): almost completely suppressed; influence on swallowing reflex ([2]; FK888 10 nM, 100 μL, local, stated as lower limit): not influencing swallowing reflex; swallowing reflex (water drinking reflection frequency) ([2]; FK888 10 μM, 50 μL/guinea pig, single local spray to pharyngeal site): decrease in swallowing reflex

Question: `NCCCC[C@H](N[C@@H](CCc1ccccc1)C(=O)O)C(=O)N1CCC[C@H]1C(=O)O` [lisinopril] was tested. Which “dose (solution concentration) with significant increase in water drinking frequency” value ([1]; 100 μL aqueous solution, single spray to pharyngeal mucosa) did it give?
Answer: ≥ 50 nM

Question: What about the water drinking frequency ([1]; 100 μL of 0.5 nM to 500 μM aqueous solution, single spray to pharyngeal mucosa) of the same compound?
Answer: dose-dependent increase

Question: And the water drinking frequency ([1]; 100 μL of 50 nM aqueous solution, single spray to pharyngeal mucosa, 30 min after administration)?
Answer: increase in water drinking frequency

Question: And the “dose per administration giving dysphagia improving effect in a human” value ([1]; converted for a human having an average body weight of 60 kg)?
Answer: ≥ 300 ng

Question: And the “dysphagia improvement effective dose based on body weight” value ([1]; converted from effective dose obtained in Examples)?
Answer: 0.005 µg/kg

Question: And the “water drinking frequency (dysphagia improving effect)” value ([1]; local administration of 100 μL of 50 μM aqueous solution to pharyngeal mucosa, 2 hours after administration)?
Answer: exhibited an improving effect on dysphagia

Question: And the “water drinking frequency (dysphagia improving effect)” value ([1]; oral (intragastric) administration of same dose as local (100 μL of 50 mM solution), 2 hours after administration)?
Answer: exerted no influence; also recorded: no dysphagia improving effect was observed

Question: And the “vasopressor reaction by administration of angiotensin I (change in mean blood pressure)” value ([3]; 100 μL of 5 μM aqueous solution orally)?
Answer: had no influence

Question: What about the “vasopressor reaction by administration of angiotensin I (change in mean blood pressure)” value ([3]; 100 μL of 5 mM aqueous solution orally) of the same compound?
Answer: suppressed a vasopressor reaction

Question: Which water drinking frequency [4] does the source give for `O=C(CCCN1CCC(O)(c2ccc(Cl)cc2)CC1)c1ccc(F)cc1` [haloperidol] here?
Answer: significantly decreased
